Here are results for twelve compounds from ChEMBL document CHEMBL3272320, “Antidepressant and anticonvulsant activity of 1-(5-phenyl-4-oxazolin-2-yl)-4-substituted piperazines” (1976).

SMILES strings stand for the structures. Activity calls are given as the source filed them. The rule behind the calls is not given here.

The test system of experiment [1] is Mus musculus. Put plainly: Antidepressant activity in mouse at […] after 4 hrs by Dopa potentiation test. In kind it is functional, organism-based.
The subject of experiment [2] is Mus musculus. Put plainly: Anticonvulsant activity in mouse assessed as protection against tonic extensor component of audiogenic seizures at 100 mg/kg, po. The experiment is classed as functional.
The test system of experiment [3] is Mus musculus. Put plainly: Antidepressant activity in po dosed mouse after 4 hrs by Dopa potentiation test relative to pemoline. In kind it is functional.

Regarding `COc1ccc(/C=C/C(=O)N2CCN(C3=NC(=O)C(c4ccccc4)O3)CC2)cc1` (configuration not stated), the result in experiment [1] was Active. Regarding `O=C1N=C(N2CCN(C(=O)Nc3ccc(Cl)cc3)CC2)OC1c1ccccc1` (configuration not stated), the Activity in experiment [2] amounted to 50%. For the same compound, the outcome in experiment [1] was Active.

Regarding `NC1=NC(=O)C(c2ccccc2)O1` (configuration not stated) [PEMOLINE], the Activity in experiment [2] is recorded as 90%. Moreover, in experiment [1], the result was Active. Taken in the same sequence, the figures for `O=C1N=C(N2CCN(C(=O)Nc3ccccc3)CC2)OC1c1ccccc1` (configuration not stated) were 50% and “Active”.

On to `CCN(CC)C(=O)N1CCN(C2=NC(=O)C(c3ccccc3)O2)CC1` (configuration not stated), for which the Activity in experiment [2] came out at 60%. Also, the result in experiment [1] was Active. For the compound `COc1cc(/C=C/C(=O)N2CCN(C3=NC(=O)C(c4ccccc4)O3)CC2)cc(Br)c1OC` (configuration not stated), the “fold change (FC)” value in experiment [3] was 3. In addition, the result in experiment [1] was Active. Regarding `COc1ccc(NC(=O)N2CCN(C3=NC(=O)C(c4ccccc4)O3)CC2)cc1` (configuration not stated), the Activity in experiment [2] was 20%. Further, the outcome in experiment [1] was Active. Consider `O=C1N=C(N2CCN(C(=O)/C=C/c3ccc(F)cc3)CC2)OC1c1ccccc1` (configuration not stated), for which the “fold change (FC)” value in experiment [3] worked out at 2. Also, the outcome in experiment [1] was Active. For `COc1cc(/C(C)=C/C(=O)N2CCN(C3=NC(=O)C(c4ccccc4)O3)CC2)cc(OC)c1OC` (configuration not stated), in experiment [1], the outcome was Active. Regarding `NC(=O)N1CCN(C2=NC(=O)C(c3ccccc3)O2)CC1` (configuration not stated), the Activity in experiment [2] amounted to 10%. In addition, the result in experiment [1] was Active. Taken in the same sequence, the figures for `CNC(=O)N1CCN(C2=NC(=O)C(c3ccccc3)O2)CC1` (configuration not stated) were 50% and “Active”.

For `COc1cc(/C=C/C(=O)N2CCN(C3=NC(=O)C(c4ccccc4)O3)CC2)cc(OC)c1OC` (configuration not stated), in experiment [3], the “fold change (FC)” value came out at 2.5. Moreover, the result in experiment [1] was Active.
